Laboratory results taken from patent US10239843B2 (CANCER RESEARCH TECHNOLOGY LIMITED, priority 2014, dated 2019).
Where two headings read alike, the source gives them in different places.

What was measured:
Human Full Length PARG = Human Full Length PARG (Homo sapiens (Human), UniProt Q86W56); assay: PARG enzyme assay (TR-FRET); assay type: biochemical; conditions: read-out: PARG Biochem IC50
PARG in HeLa cell line = assay: PARG cell assay (PAR chain immunofluorescence after MMS); assay type: cell-based; conditions: HeLa cells, MMS treatment, read-out: PARG Cell IC50
How it was run: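 Nuclear poly(ADP-ribose) chains in HeLa cells are read by indirect immunofluorescence with a mouse anti-PAR antibody applied overnight at 4° C after fixing and permeabilising. Cells get 1 h of compound, then 50 μg/mL MMS (final) for another hour. PAR persisting at that point reflects PARG inhibition.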

Sequence of Human Full Length PARG (Q86W56 whole entry): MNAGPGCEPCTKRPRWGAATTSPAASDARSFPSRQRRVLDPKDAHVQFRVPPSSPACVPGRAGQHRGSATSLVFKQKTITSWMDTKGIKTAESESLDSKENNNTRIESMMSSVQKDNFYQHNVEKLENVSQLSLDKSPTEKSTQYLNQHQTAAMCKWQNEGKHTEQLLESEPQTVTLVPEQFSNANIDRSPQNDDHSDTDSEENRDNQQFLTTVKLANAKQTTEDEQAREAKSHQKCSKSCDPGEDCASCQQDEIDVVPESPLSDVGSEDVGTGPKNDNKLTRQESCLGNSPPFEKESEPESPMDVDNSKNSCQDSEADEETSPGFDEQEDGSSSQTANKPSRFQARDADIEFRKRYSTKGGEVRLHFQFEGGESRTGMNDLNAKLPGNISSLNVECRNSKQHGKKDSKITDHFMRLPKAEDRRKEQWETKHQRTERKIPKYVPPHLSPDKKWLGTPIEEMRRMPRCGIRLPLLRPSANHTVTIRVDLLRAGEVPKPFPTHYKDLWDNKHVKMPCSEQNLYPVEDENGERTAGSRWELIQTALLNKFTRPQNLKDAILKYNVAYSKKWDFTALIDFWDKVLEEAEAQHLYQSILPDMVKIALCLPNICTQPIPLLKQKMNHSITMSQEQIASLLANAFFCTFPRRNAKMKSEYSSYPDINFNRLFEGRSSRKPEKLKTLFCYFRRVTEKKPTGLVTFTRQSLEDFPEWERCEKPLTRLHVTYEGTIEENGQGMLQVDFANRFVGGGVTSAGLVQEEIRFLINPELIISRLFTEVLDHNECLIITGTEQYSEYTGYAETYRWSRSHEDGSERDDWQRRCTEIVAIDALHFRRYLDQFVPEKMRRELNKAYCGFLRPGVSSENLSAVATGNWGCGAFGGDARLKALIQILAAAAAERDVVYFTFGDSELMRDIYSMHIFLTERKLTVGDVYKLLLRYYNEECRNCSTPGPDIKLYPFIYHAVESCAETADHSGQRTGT

Row | SMILES | IC50 (Human Full Length PARG) [nM] | IC50 (PARG in HeLa cell line; Homo sapiens) [nM] | IC50 (PARG in HeLa cell line) [nM]
1 | Cc1ncc(Cn2c(=O)c3cc(S(=O)(=O)NC4(C)CC4)ccc3n(C)c2=O)cn1 [Example 433, 1-Methyl-N-(1-methylcyclopropyl)-3-[(2-methylpyrimidin-5-yl)methyl]-2,4-dioxo-quinazoline-6-sulfonamide] | 3340 | 1130 | –
2 | Cn1c(=O)n(Cc2cnn3ccccc23)c(=O)c2cc(S(=O)(=O)NC3(C)CC3)ccc21 [Example 434, 1-Methyl-N-(1-methylcyclopropyl)-2,4-dioxo-3-(pyrazolo[1,5-a]pyridin-3-ylmethyl)quinazoline-6-sulfonamide] | 5910 | 609 | –
3 | Cc1cc(Cn2c(=O)n(Cc3cnn(C)c3)c(=O)c3cc(S(=O)(=O)NC4(CF)CC4)ccc32)n(C)n1 [Example 437, 1-[(2,5-Dimethylpyrazol-3-yl)methyl]-N-[1-(fluoromethyl)cyclopropyl]-3-[(1-methylpyrazol-4-yl)methyl]-2,4-dioxo-quinazoline-6-sulfonamide] | 23 | 165 | –
4 | Cn1c(=O)n(Cc2ccnnc2)c(=O)c2cc(S(=O)(=O)NC3(C)CC3)ccc21 [Example 446, 1-Methyl-N-(1-methylcyclopropyl)-2,4-dioxo-3-(pyridazin-4-ylmethyl)quinazoline-6-sulfonamide] | 13400 | 18900 | –
5 | COC(=O)c1cc(S(=O)(=O)NC2(C)CC2)cc2c(=O)n(Cc3cnn(C)c3)c(=O)[nH]c12 [Example 448, Methyl 6-[(1-methylcyclopropyl)sulfamoyl]-3-[(1-methylpyrazol-4-yl)methyl]-2,4-dioxo-1H-quinazoline-8-carboxylate] | 424 | – | 329
6 | CN(C)C(=O)c1cc(S(=O)(=O)NC2(C)CC2)cc2c(=O)n(Cc3cnn(C)c3)c(=O)[nH]c12 [Example 449, N,N-Dimethyl-6-[(1-methylcyclopropyl)sulfamoyl]-3-[(1-methylpyrazol-4-yl)methyl]-2,4-dioxo-1H-quinazoline-8-carboxamide] | 5780 | 13200 | –
7 | CNC(=O)c1cc(S(=O)(=O)NC2(C)CC2)cc2c(=O)n(Cc3cnn(C)c3)c(=O)[nH]c12 [Example 450, N-Methyl-6-[(1-methylcyclopropyl)sulfamoyl]-3-[(1-methylpyrazol-4-yl)methyl]-2,4-dioxo-1H-quinazoline-8-carboxamide] | 213 | 2520 | –
8 | CON(C)C(=O)c1cc(S(=O)(=O)NC2(C)CC2)cc2c(=O)n(Cc3cnn(C)c3)c(=O)[nH]c12 [Example 451, N-Methoxy-N-methyl-6-[(1-methylcyclopropyl)sulfamoyl]-3-[(1-methylpyrazol-4-yl)methyl]-2,4-dioxo-1H-quinazoline-8-carboxamide] | 3850 | 4500 | –
9 | Cc1cc(Cn2c(=O)c3cc(S(=O)(=O)NC4(C)CC4)ccc3n(CC(C)(C)C#N)c2=O)on1 [Example 452, 1-(2-Cyano-2-methyl-propyl)-N-(1-methylcyclopropyl)-3-[(3-methylisoxazol-5-yl)methyl]-2,4-dioxo-quinazoline-6-sulfonamide] | 202 | 280 | –
10 | Cn1cc(CN2C(=O)c3cccc4cc(S(=O)(=O)NC5(C)CC5)cc(c34)C2=O)cn1 [Example 454, N-(1-Methylcyclopropyl)-2-[(1-methylpyrazol-4-yl)methyl]-1,3-dioxo-benzo[de]isoquinoline-5-sulfonamide] | 728 | 2070 | –
11 | CCn1c(=O)n(Cc2cnc(C)s2)c(=O)c2cc(S(=O)(=O)NC3(C#N)CC3)ccc21 [Example 455, N-(1-Cyanocyclopropyl)-1-ethyl-3-[(2-methylthiazol-5-yl)methyl]-2,4-dioxo-quinazoline-6-sulfonamide] | 177 | 283 | –
12 | Cc1ncc(Cn2c(=O)c3cc(S(=O)(=O)NC4(C#N)CC4)ccc3n(Cc3cnn(C)c3)c2=O)s1 [Example 457, N-(1-Cyanocyclopropyl)-1-[(1-methylpyrazol-4-yl)methyl]-3-[(2-methylthiazol-5-yl)methyl]-2,4-dioxo-quinazoline-6-sulfonamide] | 42 | 494 | –

More lines, now with the values ahead:

Row | IC50 (Human Full Length PARG) [nM] | IC50 (PARG in HeLa cell line; Homo sapiens) [nM] | IC50 (PARG in HeLa cell line) [nM] | SMILES
13 | 104 | 46 | – | Cn1cc(Cn2c(=O)c3cc(S(=O)(=O)NC4(C)CC4)ccc3n(CC3CC3(F)F)c2=O)cn1 (centres unmarked) [Example 435, 1-[(2,2-Difluorocyclopropyl)methyl]-N-(1-methylcyclopropyl)-3-[(1-methylpyrazol-4-yl)methyl]-2,4-dioxo-quinazoline-6-sulfonamide]
14 | 118 | 70 | – | Cn1cc(Cn2c(=O)c3cc(S(=O)(=O)NC4(C)CC4)ccc3n(CC3CC(F)(F)C3)c2=O)cn1 [Example 436, 1-[(3,3-Difluorocyclobutyl)methyl]-N-(1-methylcyclopropyl)-3-[(1-methylpyrazol-4-yl)methyl]-2,4-dioxo-quinazoline-6-sulfonamide]
15 | 106 | 84 | – | CCn1c(=O)n(Cc2cnn(C)c2)c(=O)c2cc(S(=O)(=O)NC3(CF)CC3)ccc21 [Example 438, 1-Ethyl-N-[1-(fluoromethyl)cyclopropyl]-3-[(1-methylpyrazol-4-yl)methyl]-2,4-dioxo-quinazoline-6-sulfonamide]
16 | 310 | 420 | – | Cn1cc(Cn2c(=O)c3cc(S(=O)(=O)NC4(CF)CC4)ccc3n(CC#N)c2=O)cn1 [Example 439, 1-(Cyanomethyl)-N-[1-(fluoromethyl)cyclopropyl]-3-[(1-methylpyrazol-4-yl)methyl]-2,4-dioxo-quinazoline-6-sulfonamide]
17 | 68 | – | 50 | C#CCn1c(=O)n(Cc2cnn(C)c2)c(=O)c2cc(S(=O)(=O)NC3(CF)CC3)ccc21 [Example 440, N-[1-(Fluoromethyl)cyclopropyl]-3-[(1-methylpyrazol-4-yl)methyl]-2,4-dioxo-1-prop-2-ynyl-quinazoline-6-sulfonamide]
18 | 24 | – | 74 | Cc1cc(Cn2c(=O)n(Cc3cnn(C)c3)c(=O)c3cc(S(=O)(=O)NC4(CF)CC4)ccc32)on1 [Example 441, N-[1-(Fluoromethyl)cyclopropyl]-1-[(3-methylisoxazol-5-yl)methyl]-3-[(1-methylpyrazol-4-yl)methyl]-2,4-dioxo-quinazoline-6-sulfonamide]
19 | 43 | 134 | – | Cn1cc(Cn2c(=O)c3cc(S(=O)(=O)NC4(CF)CC4)ccc3n(CC3CCOCC3)c2=O)cn1 [Example 442, N-[1-(Fluoromethyl)cyclopropyl]-3-[(1-methylpyrazol-4-yl)methyl]-2,4-dioxo-1-(tetrahydropyran-4-ylmethyl)quinazoline-6-sulfonamide]
20 | 58 | 67 | – | Cn1cc(Cn2c(=O)c3cc(S(=O)(=O)NC4(CF)CC4)ccc3n(CC3CC3(F)F)c2=O)cn1 (centres unmarked) [Example 443, 1-[(2,2-Difluorocyclopropyl)methyl]-N-[1-(fluoromethyl)cyclopropyl]-3-[(1-methylpyrazol-4-yl)methyl]-2,4-dioxo-quinazoline-6-sulfonamide]
21 | 63 | – | 90 | Cn1cc(Cn2c(=O)c3cc(S(=O)(=O)NC4(CF)CC4)ccc3n(CC3CC(F)(F)C3)c2=O)cn1 [Example 444, 1-[(3,3-Difluorocyclobutyl)methyl]-N-[1-(fluoromethyl)cyclopropyl]-3-[(1-methylpyrazol-4-yl)methyl]-2,4-dioxo-quinazoline-6-sulfonamide]
22 | 102 | 417 | – | Cn1cc(Cn2c(=O)c3cc(S(=O)(=O)NC4(CF)CC4)ccc3n(CC3COC3)c2=O)cn1 [Example 445, N-[1-(Fluoromethyl)cyclopropyl]-3-[(1-methylpyrazol-4-yl)methyl]-1-(oxetan-3-ylmethyl)-2,4-dioxo-quinazoline-6-sulfonamide]
23 | 4110 | – | 5600 | Cn1cc(Cn2c(=O)[nH]c3ccc(S(=O)(=O)NC4(C(F)F)CC4)cc3c2=O)cn1 [Example 456, N-[1-(Difluoromethyl)cyclopropyl]-3-[(1-methylpyrazol-4-yl)methyl]-2,4-dioxo-1H-quinazoline-6-sulfonamide]
24 | 1070 | 555 | – | Cn1cc(Cn2c(=O)c3cc(S(=O)(=O)NC4(C(F)F)CC4)ccc3n(CC3CC3)c2=O)cn1 [Example 458, 1-(Cyclopropylmethyl)-N-[1-(difluoromethyl)cyclopropyl]-3-[(1-methylpyrazol-4-yl)methyl]-2,4-dioxo-quinazoline-6-sulfonamide]
25 | 325 | 1250 | – | Cc1cc(Cn2c(=O)n(Cc3cnn(C)c3)c(=O)c3cc(S(=O)(=O)NC4(C(F)F)CC4)ccc32)n(C)n1 [Example 459, N-[1-(Difluoromethyl)cyclopropyl]-1-[(2,5-dimethylpyrazol-3-yl)methyl]-3-[(1-methylpyrazol-4-yl)methyl]-2,4-dioxo-quinazoline-6-sulfonamide]
26 | 333 | 487 | – | Cn1cc(Cn2c(=O)c3cc(S(=O)(=O)NC4(C(F)F)CC4)ccc3n(Cc3ccc(F)cc3)c2=O)cn1 [Example 460, N-[1-(Difluoromethyl)cyclopropyl]-1-[(4-fluorophenyl)methyl]-3-[(1-methylpyrazol-4-yl)methyl]-2,4-dioxo-quinazoline-6-sulfonamide]
27 | 39 | 30 | – | Cn1cc(Cn2c(=O)c3cc(S(=O)(=O)NC4(CF)CC4)ccc3n(CC3CCC3)c2=O)cn1 [Example 461, 1-(Cyclobutylmethyl)-N-[1-(fluoromethyl)cyclopropyl]-3-[(1-methylpyrazol-4-yl)methyl]-2,4-dioxo-quinazoline-6-sulfonamide]
28 | 244 | 322 | – | COCCn1c(=O)n(Cc2cnn(C)c2)c(=O)c2cc(S(=O)(=O)NC3(CF)CC3)ccc21 [Example 462, N-[1-(Fluoromethyl)cyclopropyl]-1-(2-methoxyethyl)-3-[(1-methylpyrazol-4-yl)methyl]-2,4-dioxo-quinazoline-6-sulfonamide]
